Experimental data as given in patent US9302999B2, “Substituted triazoles as herbicides” (E. I. DU PONT DE NEMOURS AND COMPANY, priority 2012, dated 2016).
Read-outs that look alike come from different tables or passages of the source.

Columns and labels:
Type in all cases: in vivo
[1] = test system: foxtail, giant (giant foxtail, Setaria faberii); experiment: Test A pre-/postemergence: foxtail, giant; details: Setaria faberi, 240 h; for pest or weed control at 125 g/ha: 125 g ai/ha; for pest or weed control at 500 g/ha: 500 g ai/ha
Summary of the method: (§1)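 Rating scale 0–100 (100 = complete control), visual, ~10 days after application in the greenhouse. Applications: preemergence directed soil spray; postemergence at 1–2 leaves.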

[2] = test system: crabgrass, large (large crabgrass, Digitaria sanguinalis); experiment: Test A pre-/postemergence: crabgrass, large; details: Digitaria sanguinalis, 240 h; for pest or weed control at 125 g/ha: 125 g ai/ha; for pest or weed control at 500 g/ha: 500 g ai/ha
Summary of the method: as §1

[3] = test system: velvetleaf (Abutilon theophrasti); experiment: Test A pre-/postemergence: velvetleaf; details: Abutilon theophrasti, 240 h; for pest or weed control at 125 g/ha: 125 g ai/ha; for pest or weed control at 500 g/ha: 500 g ai/ha
Summary of the method: as §1

[4] = test system: morningglory (Ipomoea spp.); experiment: Test A pre-/postemergence: morningglory; details: Ipomoea, 240 h; for pest or weed control at 125 g/ha: 125 g ai/ha; for pest or weed control at 500 g/ha: 500 g ai/ha
Summary of the method: as §1

[5] = test system: wheat (Triticum aestivum); experiment: Test A pre-/postemergence: wheat; details: Triticum aestivum, 240 h; for plant injury at 125 g/ha: 125 g ai/ha; for plant injury at 500 g/ha: 500 g ai/ha
Summary of the method: as §1

[6] = test system: pigweed (Amaranthus retroflexus); experiment: Test A pre-/postemergence: pigweed; details: Amaranthus retroflexus, 240 h; for pest or weed control at 125 g/ha: 125 g ai/ha; for pest or weed control at 500 g/ha: 500 g ai/ha
Excerpt: (§2) Seeds of barnyardgrass (Echinochloa crus-galli), crabgrass, large (large crabgrass, Digitaria sanguinalis), foxtail, giant (giant foxtail, Setaria faberii), morningglory (Ipomoea spp.), pigweed (Amaranthus retroflexus), velvetleaf (Abutilon theophrasti), wheat (Triticum aestivum), and corn (Zea mays) were planted into a blend of loam soil and sand and treated preemergence with a directed soil spray using test chemicals formulated in a non-phytotoxic solvent mixture which included a surfactant. At the same time these species were also treated with postemergence applications of test chemicals formulated in the same manner.
(§3) Plants ranged in height from two to ten cm and were in the one- to two-leaf stage for the postemergence treatment. Treated plants and untreated controls were maintained in a greenhouse for approximately ten days, after which time all treated plants were compared to untreated controls and visually evaluated for injury. Plant response ratings, summarized in Table A, are based on a 0 to 100 scale where 0 is no effect and 100 is complete control. A dash (-) response means no test result.

[7] = test system: barnyardgrass (Echinochloa crus-galli); experiment: Test A pre-/postemergence: barnyardgrass; details: Echinochloa crus-galli, 240 h; for pest or weed control at 125 g/ha: 125 g ai/ha; for pest or weed control at 500 g/ha: 500 g ai/ha
Excerpt: as §2, §3

corn (Zea mays) = experiment: Test A pre-/postemergence: corn; details: Zea mays, 240 h
Summary of the method: as §1

OCc1nn(-c2ccc(C(F)(F)F)cc2)nc1Oc1cccc(OC(F)(F)F)c1 [Compound 114, 5-[3-(trifluoromethoxy)phenoxy]-2-[4-(trifluoromethyl)phenyl]-2H-1,2,3-triazole-4-methanol]
pest or weed control at 125 g/ha ([1]; post-emergence, Postemergence, 0 to 100 scale, 0 is no effect, 100 is complete control, read-out: Foxtail, Giant plant response rating): 30% | pest or weed control at 500 g/ha ([1]; post-emergence, Postemergence, visual rating on 0 to 100 scale (0 no effect, 100 complete control), approximately ten days, read-out: Foxtail, Giant plant response rating): 40% | pest or weed control at 125 g/ha ([1]; pre-emergence, Preemergence, 0 to 100 scale where 0 is no effect and 100 is complete control, read-out: Plant response rating, Foxtail, Giant): 0% | pest or weed control at 500 g/ha ([1]; pre-emergence, Preemergence, 0 to 100 scale (0 no effect, 100 complete control), read-out: Plant response rating, Foxtail, Giant): 10% | pest or weed control at 125 g/ha ([2]; post-emergence, Postemergence, 0 to 100 scale, 0 is no effect, 100 is complete control, read-out: Crabgrass, Large plant response rating): 30% | pest or weed control at 500 g/ha ([2]; post-emergence, Postemergence, visual rating on 0 to 100 scale (0 no effect, 100 complete control), approximately ten days, read-out: Crabgrass, Large plant response rating): 70% | pest or weed control at 125 g/ha ([2]; pre-emergence, Preemergence, 0 to 100 scale where 0 is no effect and 100 is complete control, read-out: Plant response rating, Crabgrass, Large): 0% | pest or weed control at 500 g/ha ([2]; pre-emergence, Preemergence, 0 to 100 scale (0 no effect, 100 complete control), read-out: Plant response rating, Crabgrass, Large): 30% | pest or weed control at 125 g/ha ([3]; post-emergence, Postemergence, 0 to 100 scale, 0 is no effect, 100 is complete control, read-out: Velvetleaf plant response rating): 30% | pest or weed control at 500 g/ha ([3]; post-emergence, Postemergence, visual rating on 0 to 100 scale (0 no effect, 100 complete control), approximately ten days, read-out: Velvetleaf plant response rating): 50% | pest or weed control at 125 g/ha ([3]; pre-emergence, Preemergence, 0 to 100 scale where 0 is no effect and 100 is complete control, read-out: Plant response rating, Velvetleaf): 0% | pest or weed control at 500 g/ha ([3]; pre-emergence, Preemergence, 0 to 100 scale (0 no effect, 100 complete control), read-out: Plant response rating, Velvetleaf): 10% | pest or weed control at 125 g/ha ([4]; post-emergence, Postemergence, 0 to 100 scale, 0 is no effect, 100 is complete control, read-out: Morningglory plant response rating): 60% | pest or weed control at 500 g/ha ([4]; post-emergence, Postemergence, visual rating on 0 to 100 scale (0 no effect, 100 complete control), approximately ten days, read-out: Morningglory plant response rating): 90% | pest or weed control at 125 g/ha ([4]; pre-emergence, Preemergence, 0 to 100 scale where 0 is no effect and 100 is complete control, read-out: Plant response rating, Morningglory): 10% | pest or weed control at 500 g/ha ([4]; pre-emergence, Preemergence, 0 to 100 scale (0 no effect, 100 complete control), read-out: Plant response rating, Morningglory): 30% | plant injury at 125 g/ha ([5]; post-emergence, Postemergence, 0 to 100 scale, 0 is no effect, 100 is complete control, read-out: Wheat plant response rating): 10% | plant injury at 500 g/ha ([5]; post-emergence, Postemergence, visual rating on 0 to 100 scale (0 no effect, 100 complete control), approximately ten days, read-out: Wheat plant response rating): 30% | plant injury at 125 g/ha ([5]; pre-emergence, Preemergence, 0 to 100 scale where 0 is no effect and 100 is complete control, read-out: Plant response rating, Wheat): 0% | plant injury at 500 g/ha ([5]; pre-emergence, Preemergence, 0 to 100 scale (0 no effect, 100 complete control), read-out: Plant response rating, Wheat): 0% | pest or weed control at 125 g/ha ([6]; post-emergence, Postemergence, 0 to 100 scale, 0 is no effect, 100 is complete control, read-out: Pigweed plant response rating): 80% | pest or weed control at 500 g/ha ([6]; post-emergence, Postemergence, visual rating on 0 to 100 scale (0 no effect, 100 complete control), approximately ten days, read-out: Pigweed plant response rating): 90% | pest or weed control at 125 g/ha ([6]; pre-emergence, Preemergence, 0 to 100 scale where 0 is no effect and 100 is complete control, read-out: Plant response rating, Pigweed): 0% | pest or weed control at 500 g/ha ([6]; pre-emergence, Preemergence, 0 to 100 scale (0 no effect, 100 complete control), read-out: Plant response rating, Pigweed): 10% | pest or weed control at 125 g/ha ([7]; post-emergence, Postemergence, 0 to 100 scale, 0 is no effect, 100 is complete control, read-out: Barnyardgrass plant response rating): 30% | pest or weed control at 500 g/ha ([7]; post-emergence, Postemergence, visual rating on 0 to 100 scale (0 no effect, 100 complete control), approximately ten days, read-out: Barnyardgrass plant response rating): 30% | pest or weed control at 125 g/ha ([7]; pre-emergence, Preemergence, 0 to 100 scale where 0 is no effect and 100 is complete control, read-out: Plant response rating, Barnyardgrass): 0% | pest or weed control at 500 g/ha ([7]; pre-emergence, Preemergence, 0 to 100 scale (0 no effect, 100 complete control), read-out: Plant response rating, Barnyardgrass): 0% | plant injury at 125 g/ha (corn (Zea mays); post-emergence, Postemergence, 125 g ai/ha, 0 to 100 scale, 0 is no effect, 100 is complete control, read-out: Corn plant response rating): 20% | plant injury at 500 g/ha (corn (Zea mays); post-emergence, Postemergence, 500 g ai/ha, visual rating on 0 to 100 scale (0 no effect, 100 complete control), approximately ten days, read-out: Corn plant response rating): 30% | Corn plant response rating (crop injury, 0 = no effect, 100 = complete kill) at 125 g/ha (corn (Zea mays); pre-emergence, Preemergence, 125 g ai/ha, 0 to 100 scale where 0 is no effect and 100 is complete control): 0% | Corn plant response rating (crop injury, 0 = no effect, 100 = complete kill) at 500 g/ha (corn (Zea mays); pre-emergence, Preemergence, 500 g ai/ha, 0 to 100 scale (0 no effect, 100 complete control)): 0%
